Tests used:
[1] = system: autologous peptide-loaded BLCL; assay: Cytotoxicity test (chromium release assay) of HPV18 E786-94-specific T cells; format: cell-based, human; details: effector to target ratio of 30:1, FIG. 17 bottom
Protocol: The predicted peptides were synthesized using standard methods (F moc method). […] For this, 1×10^5 PBMC derived from healthy, HLA-A2-positive donors were sown, in 100 μl of medium (RPMI 1640, 10% heat-inactivated AB plasma), in each well of a 96-well plate. 20 μg of peptide/ml were added to the culture medium. The cells were incubated at 37° C. and restimulated once per week with irradiated peptide-loaded autologous PBMC. The stimulator PBMC were incubated for 4 hours in medium containing 20 μg of peptide/ml. After the irradiation, they were diluted down to 1×10^4/100 μl with medium and added to the peptide-stimulated PBMC. For this, half the medium was aspirated from each well and 100 μl of the stimulator PBMC suspension were added. 10 U of IL-2/ml and 10 U of IL-7/ml were added from the 3rd stimulation onwards. From the 5th stimulation onwards, restimulation was carried out in the same manner using peptide-loaded autologous B lymphoblast cell lines (BLCL).
The cytotoxicity of HPV18 E786-94-specific T cells was determined in a chromium release assay. Autologous BLCL were used as the target cells. In each case, 5×10^5 cells were taken up in 100 μl of medium (RPMI 1640, 10% FCS) and treated with 20 μl of ^51chromium (NEN). For loading the BLCL with peptide, 50 μg of the corresponding peptide were added/ml. After that, the cells were incubated at room temperature for 2 hours while being carefully resuspended every 20-30 min. The cells were then washed 3 times with 5 ml of medium. For the sedimenting, the cells were in each case centrifuged at 1500 rpm for 5 min and then carefully resuspended. […]
The assay samples were incubated for 4 hours at 37° C., 98% atmospheric humidity and 5% CO2. […] On the following day, 150 μl of Microscint 40 scintillation fluid (Canberra-Packard, Deieich) were added and the numbers of distintegrations per minute in the individual assay samples were measured in the scintillation counter (Topcount, Canberra-Packard, Dreieich).
The specific lysis was calculated using the following formula: […]

[2] = system: T cell line generated with HeLa CD80/HLA-A2 transfectants (H7.1-A2); assay: IFN-γ ELISpot of H7.1-A2-specific T cell line against peptide-loaded autologous PBMC; format: cell-based, human; details: H7.1-A2-induced T cell line, FIG. 17 top
[3] = system: human T cells; assay: Summary of examples 3 to 18: epitopes recognized by human T cells; format: cell-based; details: Table 4, HPV18 peptides, species human
[4] = system: CVLP-stimulated CD4-positive T cells; assay: Restimulating HPV18 CVLP-stimulated T cells with BLCL presenting pools or Q30 (example 15); format: cell-based, human
Protocol: (§1) In analogy with example 6, human T cells derived from a non-HLA-typed blood donor were stimulated, at 37° C., with HPV18L1ΔCDIE71-53DI CVLPs and HPV18L1ΔCDIE71-60DI CVLPs and harvested.
The T cells were then restimulated, at 37° C. and in 100 μl of medium, with the peptide pools from example 6 and 10^5 antigen-presenting cells (donor-identical BLCL) in the presence of 10 IU of IL2/ml. Use was made, in this connection, of quantities of the peptide pools which were such that 1 μg/ml was added in the case of each individual peptide. Cells which were only incubated with buffer served as the negative control while cells which were incubated with the HPV18 L1 or E7 peptide pool served as positive controls (upper part of FIG. 14). In the case of the lower part of FIG. 14, the T cells were restimulated, at 37° C. and in 100 μl of medium, with peptide pools F and 4 and with 1 μg of peptide Q30/ml and 10^5 antigen-presenting cells (donor-identical BLCL) in the presence of 10 IU of IL2/ml.
1 μl of monensin was added after an hour. The cells were then incubated at 37° C. for a further 5 hours. After that, the cells were fixed and permeabilized and stained with α-human […], with α-human CD4/PerCP and with α-human IFNγ/FITC. The labeling of the cells was examined in a FACScan Calibur and the results of the measurements were analyzed using Cellquest software.

[5] = system: LKK cells; assay: 51Cr release: lysing HPV18 peptide-loaded LKK cells (example 17); format: cell-based, murine
Protocol: In analogy with example 4, RMA or LKK cells were radioactively labeled with ^51Cr and incubated with the peptides (Q43 and Q44 in the upper part of FIG. 16 and Q49 in the lower part of FIG. 16) which are plotted on the X axis. Cells without peptide served as negative controls. T cells which had previously been stimulated with the peptide pool were then added.
The lysis of the RMA cells or LKK cells by the T cells was measured by the release of the ^51Cr and calculated as described in example 4.

[6] = system: CVLP-stimulated CD8-positive T cells; assay: Restimulating HPV16 CVLP-stimulated T cells with P33-presenting BLCL (example 11); format: cell-based, human
Protocol: In analogy with example 6, human T cells derived from a non-HLA-typed blood donor were stimulated with HPV16L1ΔC*E71-55 CVLPs and harvested.
The T cells were then restimulated, at 37° C. and in 100 μl of medium, with 1 μg of peptide P33/ml and 10^5 antigen-presenting cells (donor-identical BLCL) in the presence of 10 IU of IL2/ml. Cells which were only incubated with buffer served as the negative control while cells which were incubated with HPV16 L1 peptide pool served as the positive control.
(§2) 1 μl of monensin was added after an hour. The cells were then incubated at 37° C. for a further 5 hours. After that, the cells were fixed and permeabilized and stained with α-human CD8/APC, with α-human CD4/PerCP and with α-human IFNγ/FITC. The labeling of the cells was examined in a FACScan Calibur and the results of the measurements were analyzed using Cellquest software.

[7] = system: P33-loaded RMA cells; assay: 51Cr release: lysing P33-loaded RMA cells; format: cell-based, C57BL/6 mouse
Protocol: RMA cells were incubated at 37° C. for one hour with ^51Cr, washed three times with medium and divided into 2 aliquots. 10 μg of the P33 peptide/ml were added to one aliquot of the cells while the other aliquot served as the negative control in the absence of the peptide. In each case 2000 of the cells (=target cells) were then added to 40.000 T cells (=effector cells) in a total volume of 150 μl. The T cells had previously been stimulated for 5 weeks with a mixture composed of 43 peptides (peptides 1-43, in each case 1 μg/ml).
Assay mixtures for spontaneous and maximal lysis of the cells were set up in parallel. Target cells which were incubated with culture medium were used for the spontaneous lysis. For the maximal lysis, target cells were lysed by adding 0.5% Triton X100.
The assay mixtures were incubated at 37° C. for 5 h. 50 μl volumes of the supernatants from the assay mixtures were added to Luma plates and dried overnight at room temperature. On the following morning, the quantity of radioactive ^51Cr (counts) was determined using a Canberra-Packerd B Plate Counter and related to the maximally lysed cells in the Triton assay mixture. The % specific lysis was then determined using the formula:
x=100·(counts−spontaneous counts)/(maximal counts−spontaneous counts).

[8] = system: HPV18 CVLP-stimulated human T cells; assay: Restimulating HPV18 CVLP-stimulated T cells with BLCL presenting Q38, Q39, Q46 or Q47 (example 13); format: cell-based
Protocol: In analogy with example 6, human T cells (4×10^5) derived from a non-HLA-typed blood donor were stimulated with HPV18L1ΔCDIE71-53DI CVLPs and HPV18L1ΔCDIE71-60DI CVLPs and harvested.
The T cells were then restimulated, at 37° C. and in 100 μl of medium, with in each case 1 μg of peptide Q38, Q39, Q46 or Q47/ml and 10^5 antigen-presenting cells (donor-identical BLCL) in the presence of 10 IU of IL2/ml. Cells which were only incubated with buffer served as the negative control while cells which were incubated with the HPV18 L1 peptide pool or the E7 peptide pool served as positive controls.
as §2

[9] = system: CVLP-stimulated human CD4-positive T cells; assay: Restimulating HPV18 CVLP-stimulated T cells with BLCL presenting HPV18 peptide pools (example 6); format: cell-based; details: peptide common to two reactive HPV18 pools; CD4/IFNγ
Protocol: Human T cells (4×10^5) from a non-HLA-typed blood donor were stimulated for 1 week with HPV18 L1ΔCDIE71-53DI CVLPs and HPV18 L1ΔACDIE71-60DI CVLPS, 800 U of human GM-CSF/ml and 500 U of human IL4/ml and also, for a further 5 weeks, with HPV18 L1ΔCDIE71-53DI CVLPs and HPV18 L1ΔCDIE71-6ODI CVLPs at 37° C., with the weekly addition of 1 μg of the CVLPs mixLure (ratio of the two constructs 1:1)/ml and 10^5 antigen-presenting cells (irradiated PMBC), and harvested.
The 20 mer peptides Q1 to 52 were assembled into peptide pools A to H and 1 to 7, respectively, in accordance with the matrix
The T cells were then restimulated, at 37° C. and in 100 μl of medium, with the peptide pools and 10^5 antigen-presenting cells (donor-identical BLCL) in the presence of 10 IU of IL2/ml. The quantities of the peptide pools which were used in this connection were such that. 1 μg/ml was added in the case of each individual peptide.
Cells which were only incubated with buffer served as the negative control while cells incubated with the HPV18 L1 peptide pool and the HPV18 E7 peptide pool, respectively, served as positive controls.
1 μl of monensin was added after an hour. The cells were then incubated at 37° C. for a further 5 hours. After that, the cells were fixed and permeabilized and stained with α-human CD8/APC, with α-human CD4/PerCP and with α-human IFNγ/FITC. The labeling of the cells was analyzed in a FACScan Calibur and the results of the measurements were analyzed using Cellquest software.

[10] = system: CVLP-stimulated CD4-positive T cells; assay: Restimulating HPV18 CVLP-stimulated T cells with BLCL presenting HPV18 peptide pools (example 12); format: cell-based, human; details: peptide common to two reactive HPV18 pools; CD4/IFNγ
Protocol: as §1
The T cells were then restimulated, at 37° C. and in 100 μl of medium, with the HPV18 peptide pools from example 6 and 10^5 antigen-presenting cells (donor-identical BLCL) in the presence of 10 IU of IL2/ml. Use was made, in this connection, of quantities of the peptide pools which were such that 1 μg/ml was added in the case of each individual peptide. Cells which were only incubated with buffer served as the negative control while cells which were incubated with HPV18 L1 peptide pool served as the positive control.
as §2

For “HPV16 E628-36: control peptide in the chromium release assay (TTIHDIILE; UniProt P03126 28-36, looked up, fragment)”, the specific lysis [1] was “No specific lysis”.

For “HPV16 E728-36: control peptide in the ELISpot analysis (LNDSSEEED; UniProt P03129 28-36, looked up, fragment) [reference compound]”, the “IFN-γ ELISpot reaction” value [2] was “did not induce any IFN-γ secretion”.

In the case of “HPV18 E77-15: control peptide; HPV18 E77-15 epitope described by Rudolf MP et al. (2001) (TLQDIVLHL; UniProt P06788 7-15, looked up, fragment)”, the specific lysis [1] is reported as “No specific lysis”.

With “NNGVCWHNQLFVTVVDTTRS [Q30, HPV18 L1 320-339]” the Epitope type [3] was “TH1”, the “T cell epitope assignment (TH1)” value ([4]; peptide common to pools F and 4) was “contains a TH1 epitope” and the “proportion of reactive CD4-positive and IFNγ-positive T cells, confirmation experiment” value ([4]; pools F or 4 or 1 μg Q30/ml compared with each other, FIG. 14) was “comparable”.

“PQRHTMLCMCCKCEARIKLV [Q49, HPV18 E7 56-75]” was tested, and the “T cell epitope assignment” value ([5]; conclusion from FIG. 16 lower part) was “H2k-restricted cytotoxic T cell epitope” and the “specific lysis of target cells (51Cr release)” value ([5]; peptide-loaded LKK cells, effector:target 20, FIG. 16 lower part) was “able to efficiently lyse”.

For “TTYKNTNFKEYLRHGEEYDL [P33, HPV16 L1 353-372]”, the “proportion of CD8-positive T cells reactive on the basis of IFNγ expression” value ([6]; 1 μg P33/ml, donor-identical BLCL, versus negative control, FIG. 10) was “markedly higher”, the “T cell epitope assignment” value ([6]; conclusion from FIG. 10) was “contains a cytotoxic T cell epitope” and the “specific lysis of target cells (51Cr release)” value ([7]; 10 μg P33/ml, effector:target 20, T cells stimulated with peptides P1-P43, FIG. 2) was “able to efficiently lyse”. For the same substance, the “T cell epitope assignment” value ([7]; conclusion from FIG. 2) was “H2b-restricted cytotoxic T cell epitope”.

With “VDLLCHEQLSDSEEENDEID [Q46, HPV18 E7 23-42]” the “proportion of reactive CD4-positive and IFNγ-positive T cells” value ([8]; 1 μg peptide/ml, donor-identical BLCL, FIG. 12 top left) was “markedly higher than in the negative control”, the “proportion of CD8-positive and IL4-positive cells” value ([8]; 1 μg peptide/ml, FIG. 12 lower right) was “low, and comparable to the negative control” and the “T cell epitope assignment (TH1)” value ([8]; conclusion from FIG. 12 top left) was “contain a TH1 epitope”. For the same substance, the Epitope type [3] was “TH1”, the “T cell epitope assignment” value [9] was “contain T helper epitopes” and the “T cell epitope assignment (TH1)” value [10] was “contain a TH1 epitope”.
